# Source: patent US20260337208A1, “HETEROCYCLIC DERIVATIVES AS JANUS KINASE INHIBITORS” (CHIESI FARMACEUTICI S.P.A., priority 2022, published 2026)
# Key:
# JAK2 = JAK2 (Homo sapiens, UniProt O60674); test: Biochemical potency on JAK2, TR-FRET (LANCE Ultra kinase assay); details: ATP corresponding to Km; cell-free; read-out: JAK2 inhibitory activity (pIC50) (converted)
# Outline: (§1)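 ULight-JAK-1 (Tyr1023) peptide phosphorylation at Km ATP, 1.5 h r.t.; substrate solution held peptide 30/50/20/10 nM and ATP 20/0.7/0.2/12 μM, enzyme solution 0.15/0.083/0.025/0.144 ng/μL (JAK1/JAK2/JAK3/TYK2). EDTA stop, Eu-PT66 antibody TR-FRET read at 665 nm; 11-point 5-fold dilutions from 20 μM; IC50 by variable-slope fit.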
# JAK1 = JAK1 (Homo sapiens, UniProt P23458); test: Biochemical potency on JAK1, TR-FRET (LANCE Ultra kinase assay); details: ATP corresponding to Km; cell-free; read-out: JAK1 inhibitory activity (pIC50) (converted)
# Outline: as §1
# [1] = test system: pSTAT6 in BEAS-2B human cell line; test: Inhibition of IL-13 induced pSTAT6 in BEAS; format: cell-based; details: for IC50: Homo sapiens, BEAS-2B, 0.5 h, IL-13 trigger, 30 min, parent compound; for Fold difference parent vs predicted acid metabolite: ratio=IC50 predicted acid metabolite/IC50 ester
# Outline: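 BEAS-2B cells grown 48 h, pre-treated 30 min with compound, then stimulated 30 min with IL-13. Lysate pSTAT6 (Tyr641) measured by sandwich ELISA. Eleven 5-fold dilutions from 10 μM, in duplicate, fitted to IC50.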
# JAK3 = target: T1, JAK3 (Homo sapiens, UniProt P52333); test: Biochemical potency on JAK3, TR-FRET (LANCE Ultra kinase assay); details: ATP corresponding to Km; cell-free; read-out: JAK3 inhibitory activity (pIC50) (converted)
# T1 sequence (P52333 1-1124): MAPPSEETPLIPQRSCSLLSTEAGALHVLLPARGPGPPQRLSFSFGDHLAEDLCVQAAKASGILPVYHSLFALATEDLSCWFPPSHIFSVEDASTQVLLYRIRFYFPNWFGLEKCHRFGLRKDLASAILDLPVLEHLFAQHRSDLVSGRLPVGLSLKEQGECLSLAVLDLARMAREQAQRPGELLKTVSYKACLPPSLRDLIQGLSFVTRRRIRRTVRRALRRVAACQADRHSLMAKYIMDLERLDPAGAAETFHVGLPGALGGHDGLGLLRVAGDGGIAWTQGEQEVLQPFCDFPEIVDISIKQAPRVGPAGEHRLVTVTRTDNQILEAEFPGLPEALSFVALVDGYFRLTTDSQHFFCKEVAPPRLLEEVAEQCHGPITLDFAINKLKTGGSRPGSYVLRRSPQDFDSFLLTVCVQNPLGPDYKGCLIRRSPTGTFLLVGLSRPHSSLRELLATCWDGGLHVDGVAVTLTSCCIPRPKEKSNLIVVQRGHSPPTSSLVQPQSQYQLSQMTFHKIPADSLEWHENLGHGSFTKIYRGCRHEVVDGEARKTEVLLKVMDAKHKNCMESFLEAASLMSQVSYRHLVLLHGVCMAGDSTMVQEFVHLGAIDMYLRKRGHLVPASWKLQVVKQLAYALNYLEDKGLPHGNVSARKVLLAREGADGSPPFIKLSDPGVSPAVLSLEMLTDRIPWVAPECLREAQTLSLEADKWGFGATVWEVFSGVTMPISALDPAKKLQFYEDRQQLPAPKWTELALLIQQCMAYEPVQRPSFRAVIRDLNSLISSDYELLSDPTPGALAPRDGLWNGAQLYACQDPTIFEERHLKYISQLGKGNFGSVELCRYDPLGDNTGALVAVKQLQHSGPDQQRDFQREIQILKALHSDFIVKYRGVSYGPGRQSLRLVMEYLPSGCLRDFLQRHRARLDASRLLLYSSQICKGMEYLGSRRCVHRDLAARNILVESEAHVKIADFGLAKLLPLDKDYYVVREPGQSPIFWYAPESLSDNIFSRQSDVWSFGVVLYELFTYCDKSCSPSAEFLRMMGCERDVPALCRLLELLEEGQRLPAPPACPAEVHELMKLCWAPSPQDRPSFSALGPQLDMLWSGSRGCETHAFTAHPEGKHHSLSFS
# Outline: as §1
# TYK2 = TYK2 (Homo sapiens, UniProt P29597); test: Biochemical potency on Tyk2, TR-FRET (LANCE Ultra kinase assay); details: ATP corresponding to Km; cell-free; read-out: TYK2 inhibitory activity (pIC50) (converted)
# Outline: as §1
# Chain of JAK1 (P23458 whole entry): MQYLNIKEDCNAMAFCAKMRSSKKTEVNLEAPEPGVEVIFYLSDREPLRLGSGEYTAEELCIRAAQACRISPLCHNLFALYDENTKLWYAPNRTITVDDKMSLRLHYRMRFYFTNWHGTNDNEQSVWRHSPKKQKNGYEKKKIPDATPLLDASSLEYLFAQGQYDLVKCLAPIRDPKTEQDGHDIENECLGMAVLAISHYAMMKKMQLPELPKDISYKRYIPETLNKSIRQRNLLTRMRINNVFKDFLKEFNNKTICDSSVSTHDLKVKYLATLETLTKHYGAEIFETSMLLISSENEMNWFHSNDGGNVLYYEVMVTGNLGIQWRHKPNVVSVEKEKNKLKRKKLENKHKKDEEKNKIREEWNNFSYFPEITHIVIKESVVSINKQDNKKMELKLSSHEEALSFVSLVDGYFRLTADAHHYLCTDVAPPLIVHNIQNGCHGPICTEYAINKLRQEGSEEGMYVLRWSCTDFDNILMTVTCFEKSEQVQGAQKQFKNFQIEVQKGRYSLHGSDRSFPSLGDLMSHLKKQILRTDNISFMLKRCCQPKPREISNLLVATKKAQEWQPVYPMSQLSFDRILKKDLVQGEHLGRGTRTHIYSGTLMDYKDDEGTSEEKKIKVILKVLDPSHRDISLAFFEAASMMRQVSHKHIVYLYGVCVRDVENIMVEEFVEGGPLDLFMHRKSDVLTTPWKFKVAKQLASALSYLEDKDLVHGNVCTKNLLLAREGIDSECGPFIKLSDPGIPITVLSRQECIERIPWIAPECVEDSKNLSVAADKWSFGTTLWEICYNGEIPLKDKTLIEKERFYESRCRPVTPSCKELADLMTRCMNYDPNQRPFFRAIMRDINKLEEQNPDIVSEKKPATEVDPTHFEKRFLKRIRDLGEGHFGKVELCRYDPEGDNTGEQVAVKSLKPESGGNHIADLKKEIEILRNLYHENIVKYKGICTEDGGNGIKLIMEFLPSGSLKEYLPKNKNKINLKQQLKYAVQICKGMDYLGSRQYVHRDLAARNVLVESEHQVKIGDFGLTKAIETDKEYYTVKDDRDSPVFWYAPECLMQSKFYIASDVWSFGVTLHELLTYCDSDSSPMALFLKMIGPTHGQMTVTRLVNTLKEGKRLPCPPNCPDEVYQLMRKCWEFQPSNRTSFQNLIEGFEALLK
# Chain of JAK2 (O60674 whole entry): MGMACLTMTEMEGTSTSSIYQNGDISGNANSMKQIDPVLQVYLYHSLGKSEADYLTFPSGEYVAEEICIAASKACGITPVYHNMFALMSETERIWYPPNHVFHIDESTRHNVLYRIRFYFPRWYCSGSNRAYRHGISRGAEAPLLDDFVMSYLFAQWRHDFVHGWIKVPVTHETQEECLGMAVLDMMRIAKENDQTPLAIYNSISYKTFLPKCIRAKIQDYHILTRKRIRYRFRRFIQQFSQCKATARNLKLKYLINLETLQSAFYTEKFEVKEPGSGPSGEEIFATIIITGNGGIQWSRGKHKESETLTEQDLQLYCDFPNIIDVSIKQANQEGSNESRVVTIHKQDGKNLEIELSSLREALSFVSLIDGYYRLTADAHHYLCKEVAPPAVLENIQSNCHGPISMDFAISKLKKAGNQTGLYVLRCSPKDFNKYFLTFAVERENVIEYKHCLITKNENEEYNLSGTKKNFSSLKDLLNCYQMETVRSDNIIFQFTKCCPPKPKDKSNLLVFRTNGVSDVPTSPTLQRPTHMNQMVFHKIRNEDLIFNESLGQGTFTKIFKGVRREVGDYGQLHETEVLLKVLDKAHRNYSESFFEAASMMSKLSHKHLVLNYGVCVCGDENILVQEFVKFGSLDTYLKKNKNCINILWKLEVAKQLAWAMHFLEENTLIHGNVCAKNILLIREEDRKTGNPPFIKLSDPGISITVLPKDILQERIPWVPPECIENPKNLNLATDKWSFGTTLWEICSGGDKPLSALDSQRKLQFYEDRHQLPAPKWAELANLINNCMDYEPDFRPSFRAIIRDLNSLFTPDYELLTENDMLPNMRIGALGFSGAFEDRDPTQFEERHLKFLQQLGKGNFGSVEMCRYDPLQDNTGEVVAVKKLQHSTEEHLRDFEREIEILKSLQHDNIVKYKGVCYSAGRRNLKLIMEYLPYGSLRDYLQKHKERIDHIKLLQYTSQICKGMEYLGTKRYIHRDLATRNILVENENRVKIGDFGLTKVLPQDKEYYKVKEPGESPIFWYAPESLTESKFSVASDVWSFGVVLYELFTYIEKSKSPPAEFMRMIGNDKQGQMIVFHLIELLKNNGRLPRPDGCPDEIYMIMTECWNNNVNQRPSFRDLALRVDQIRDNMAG
# Chain of TYK2 (P29597 whole entry): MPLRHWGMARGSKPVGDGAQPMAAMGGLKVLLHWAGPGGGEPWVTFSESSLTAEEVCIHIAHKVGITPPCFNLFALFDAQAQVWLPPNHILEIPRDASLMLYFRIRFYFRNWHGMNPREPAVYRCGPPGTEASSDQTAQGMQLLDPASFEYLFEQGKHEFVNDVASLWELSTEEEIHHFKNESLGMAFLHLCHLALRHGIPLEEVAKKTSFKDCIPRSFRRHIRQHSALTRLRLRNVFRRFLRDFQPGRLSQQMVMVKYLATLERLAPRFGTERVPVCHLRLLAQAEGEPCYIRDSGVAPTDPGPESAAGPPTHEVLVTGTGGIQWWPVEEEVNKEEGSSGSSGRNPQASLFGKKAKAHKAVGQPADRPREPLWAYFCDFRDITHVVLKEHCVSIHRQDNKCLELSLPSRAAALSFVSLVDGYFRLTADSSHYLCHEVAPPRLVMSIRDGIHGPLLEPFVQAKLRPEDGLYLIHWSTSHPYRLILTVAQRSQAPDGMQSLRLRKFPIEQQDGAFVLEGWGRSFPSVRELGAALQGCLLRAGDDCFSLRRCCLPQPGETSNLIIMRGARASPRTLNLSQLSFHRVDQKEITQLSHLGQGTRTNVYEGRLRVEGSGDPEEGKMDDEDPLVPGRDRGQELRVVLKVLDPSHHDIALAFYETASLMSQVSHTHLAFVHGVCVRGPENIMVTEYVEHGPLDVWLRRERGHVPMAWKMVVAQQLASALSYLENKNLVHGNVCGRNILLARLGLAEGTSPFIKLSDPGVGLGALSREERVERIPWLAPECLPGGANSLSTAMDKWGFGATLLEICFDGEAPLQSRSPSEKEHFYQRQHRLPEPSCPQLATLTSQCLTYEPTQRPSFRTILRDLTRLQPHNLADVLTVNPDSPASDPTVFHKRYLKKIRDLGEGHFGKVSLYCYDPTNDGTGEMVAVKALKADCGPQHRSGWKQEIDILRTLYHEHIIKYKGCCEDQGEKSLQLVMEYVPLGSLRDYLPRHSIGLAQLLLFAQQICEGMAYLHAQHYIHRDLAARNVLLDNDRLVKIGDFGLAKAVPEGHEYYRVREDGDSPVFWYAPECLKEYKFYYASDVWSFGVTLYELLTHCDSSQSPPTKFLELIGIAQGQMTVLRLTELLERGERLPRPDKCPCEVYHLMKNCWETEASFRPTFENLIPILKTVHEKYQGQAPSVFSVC
IC50 (JAK2) [nM],IC50 (JAK1) [nM],IC50 (JAK3) [nM],IC50 (TYK2) [nM],SMILES,IC50 [1] [nM],Fold difference parent vs predicted acid metabolite [1]
≤ 5.01,≤ 5.01,≤ 5.01,5.01 to 50.1,"CCOC(=O)C1(C)CCN(CCNC(=O)c2nn(-c3cc4c(cc3OC)NCCO4)c3cc(-c4cnn5cccnc45)ncc23)CC1 [Example 34, ethyl 1-(2-(1-(6-methoxy-3,4-dihydro-2H-benzo[b][1,4]oxazin-7-yl)-6-(pyrazolo[1,5-a]pyrimidin-3-yl)-1H-pyrazolo[4,3-c]pyridine-3-carboxamido)ethyl)-4-methylpiperidine-4-carboxylate]",5.01 to 50.1,
≤ 5.01,≤ 5.01,≤ 5.01,5.01 to 50.1,"COc1cc2c(cc1-n1nc(C(=O)NCCN3CCC(C(=O)OC4CCCC4)CC3)c3cnc(-c4cnn5cccnc45)cc31)OCCN2 [Example 12, cyclopentyl 1-(2-(1-(6-methoxy-3,4-dihydro-2H-benzo[b][1,4]oxazin-7-yl)-6-(pyrazolo[1,5-a]pyrimidin-3-yl)-1H-pyrazolo[4,3-c]pyridine-3-carboxamido)ethyl)piperidine-4-carboxylate]",≤ 5.01,kkkk (ratio≥200)
≤ 5.01,≤ 5.01,≤ 5.01,5.01 to 50.1,"COc1cc2c(cc1-n1nc(C(=O)NCCN3CCC(C(=O)OC4CC4)CC3)c3cnc(-c4cnn5cccnc45)cc31)OCCN2 [Example 11, cyclopropyl 1-(2-(1-(6-methoxy-3,4-dihydro-2H-benzo[b][1,4]oxazin-7-yl)-6-(pyrazolo[1,5-a]pyrimidin-3-yl)-1H-pyrazolo[4,3-c]pyridine-3-carboxamido)ethyl)piperidine-4-carboxylate]",≤ 5.01,kkkk (ratio≥200)
≤ 5.01,≤ 5.01,≤ 5.01,5.01 to 50.1,CCOC(=O)[C@@H]1C[C@@H]2CN(CCNC(=O)c3nn(-c4cc5c(cc4OC)NCCO5)c4cc(-c5cnn6cccnc56)ncc34)C[C@@H]2C1 [Example 32],5.01 to 50.1,
≤ 5.01,≤ 5.01,≤ 5.01,5.01 to 50.1,"COc1cc2c(cc1-n1nc(C(=O)NCCN3CCC(C(=O)OC4CC(C#N)C4)CC3)c3cnc(-c4cnn5cccnc45)cc31)OCCN2 (stereo not drawn) [Example 47, 3-cyanocyclobutyl 1-(2-(1-(6-methoxy-3,4-dihydro-2H-benzo[b][1,4]oxazin-7-yl)-6-(pyrazolo[1,5-a]pyrimidin-3-yl)-1H-pyrazolo[4,3-c]pyridine-3-carboxamido)ethyl)piperidine-4-carboxylate]",≤ 5.01,kkkk (ratio≥200)
≤ 5.01,≤ 5.01,≤ 5.01,5.01 to 50.1,"CCOC(=O)[C@H]1[C@@H]2CN(CCNC(=O)c3nn(-c4cc5c(cc4OC)NCCO5)c4cc(-c5cnn6cccnc56)ncc34)C[C@@H]21 [Example 33, ethyl (1R,5S,6r)-3-(2-(1-(6-methoxy-3,4-dihydro-2H-benzo[b][1,4]oxazin-7-yl)-6-(pyrazolo[1,5-a]pyrimidin-3-yl)-1H-pyrazolo[4,3-c]pyridine-3-carboxamido)ethyl)-3-azabicyclo[3.1.0]hexane-6-carboxylate]",5.01 to 50.1,
≤ 5.01,≤ 5.01,≤ 5.01,≤ 5.01,"COc1cc2c(cc1-n1nc(C(=O)OCCCN3CCN(C)CC3)c3cnc(-c4cnn5cccnc45)cc31)SCCN2 [Example 8, 3-(4-methylpiperazin-1-yl)propyl 1-(6-methoxy-3,4-dihydro-2H-benzo[b][1,4]thiazin-7-yl)-6-(pyrazolo[1,5-a]pyrimidin-3-yl)-1H-pyrazolo[4,3-c]pyridine-3-carboxylate]",5.01 to 50.1,
≤ 5.01,≤ 5.01,≤ 5.01,5.01 to 50.1,"CCOC(=O)C1CN(CCNC(=O)c2nn(-c3cc4c(cc3OC)NCCO4)c3cc(-c4cnn5cccnc45)ncc23)C1 [Example 31, ethyl 1-(2-(1-(6-methoxy-3,4-dihydro-2H-benzo[b][1,4]oxazin-7-yl)-6-(pyrazolo[1,5-a]pyrimidin-3-yl)-1H-pyrazolo[4,3-c]pyridine-3-carboxamido)ethyl)azetidine-3-carboxylate]",5.01 to 50.1,
≤ 5.01,≤ 5.01,≤ 5.01,5.01 to 50.1,"COCCOC(=O)C1CCN(CCNC(=O)c2nn(-c3cc4c(cc3OC)NCCO4)c3cc(-c4cnn5cccnc45)ncc23)CC1 [Example 16, 2-methoxyethyl 1-(2-(1-(6-methoxy-3,4-dihydro-2H-benzo[b][1,4]oxazin-7-yl)-6-(pyrazolo[1,5-a]pyrimidin-3-yl)-1H-pyrazolo[4,3-c]pyridine-3-carboxamido)ethyl)piperidine-4-carboxylate]",≤ 5.01,kkkk (ratio≥200)
≤ 5.01,≤ 5.01,≤ 5.01,5.01 to 50.1,"COc1cc2c(cc1-n1nc(C(=O)NCCN3CCC(C(=O)OCC(F)(F)F)CC3)c3cnc(-c4cnn5cccnc45)cc31)OCCN2 [Example 13, 2,2,2-trifluoroethyl 1-(2-(1-(6-methoxy-3,4-dihydro-2H-benzo[b][1,4]oxazin-7-yl)-6-(pyrazolo[1,5-a]pyrimidin-3-yl)-1H-pyrazolo[4,3-c]pyridine-3-carboxamido)ethyl)piperidine-4-carboxylate]",≤ 5.01,kkkk (ratio≥200)
≤ 5.01,≤ 5.01,≤ 5.01,≤ 5.01,"CCOC(=O)C1CCN(CCNC(=O)c2nn(-c3cc4c(cc3OC)NCCS4)c3cc(-c4cnn5cccnc45)ncc23)CC1 [Example 1, ethyl 1-(2-(1-(6-methoxy-3,4-dihydro-2H-benzo[b][1,4]thiazin-7-yl)-6-(pyrazolo[1,5-a]pyrimidin-3-yl)-1H-pyrazolo[4,3-c]pyridine-3-carboxamido)ethyl)piperidine-4-carboxylate]",≤ 5.01,kk (100>ratio≥10)
≤ 5.01,≤ 5.01,≤ 5.01,5.01 to 50.1,"CCOC(=O)[C@H]1C[C@@H](OC(=O)Nc2nn(-c3cc4c(cc3OC)NCCO4)c3cc(-c4cnn5cccnc45)ncc23)C1 [Example 40, ethyl (1s,3s)-3-(((1-(6-methoxy-3,4-dihydro-2H-benzo[b][1,4]oxazin-7-yl)-6-(pyrazolo[1,5-a]pyrimidin-3-yl)-1H-pyrazolo[4,3-c]pyridin-3-yl)carbamoyl)oxy)cyclobutane-1-carboxylate]",5.01 to 50.1,kk (100>ratio≥10)
5.01 to 50.1,5.01 to 50.1,≤ 5.01,5.01 to 50.1,"CCOC(=O)C1CCN(CCNC(=O)c2nn(-c3cc4c(cc3OC)NCCC4)c3cc(-c4cnn5cccnc45)ncc23)CC1 [Example 38, ethyl 1-(2-(1-(7-methoxy-1,2,3,4-tetrahydroquinolin-6-yl)-6-(pyrazolo[1,5-a]pyrimidin-3-yl)-1H-pyrazolo[4,3-c]pyridine-3-carboxamido)ethyl)piperidine-4-carboxylate]",≤ 5.01,
